According to ChEMBL document CHEMBL2163233, “3-Oxoisoindoline-1-carboxamides: potent, state-dependent blockers of voltage-gated sodium channel Na(V)1.7 with efficacy in rat pain models” (J Med Chem, 2012):
Activity calls are given as the source filed them. The calls are words filed in the database; no cut-off is given here.

Assays:
[1] = target: Voltage-dependent T-type calcium channel subunit alpha-1H (Homo sapiens) (UniProt O95180); conditions: 31.6 uM
[2] = target: Potassium voltage-gated channel subfamily A member 5 (Homo sapiens) (UniProt P22460); conditions: 10 uM
[3] = in vivo; conditions: Sprague-Dawley, rat, iv, 3 umol/kg
[4] = organism: Rattus norvegicus; assay: animal or person; conditions: Sprague-Dawley, po, read-out: INH
[5] = in vivo; conditions: Sprague-Dawley, rat, iv, 3 umol/kg; remark: listed apart in the source
[6] = in vitro; conditions: rat, microsomes, CLH
[7] = target: Glycine receptor subunit alpha-1 (Homo sapiens) (UniProt P23415); conditions: 33 uM
[8] = target: Alpha-2A adrenergic receptor (Homo sapiens) (UniProt P08913); conditions: 10 uM
[9] = cells; conditions: Homo sapiens, HEK293
[10] = in vivo; conditions: Sprague-Dawley, rat, po, 10 umol/kg
[11] = in vivo; conditions: Sprague-Dawley, rat, po, 10 umol/kg; remark: listed apart in the source
[12] = target: Estrogen receptor (Homo sapiens) (UniProt P03372); conditions: 10 uM
[13] = target: Alpha-1D adrenergic receptor (Homo sapiens) (UniProt P25100); conditions: 10 uM
[14] = target: Insulin receptor (Homo sapiens) (UniProt P06213); conditions: 10 uM
[15] = target: D(2) dopamine receptor (Homo sapiens) (UniProt P14416); conditions: 10 uM
[16] = in vivo; conditions: Sprague-Dawley, rat, iv, 3 umol/kg; remark: listed apart in the source
[17] = organism: Rattus norvegicus; assay: animal or person; conditions: Sprague-Dawley, po, read-out: INH; remark: listed apart in the source
[18] = organism: Rattus norvegicus; conditions: Brain, Brain membranes, 10 uM
[19] = in vitro; conditions: Sprague-Dawley, rat, plasma
[20] = target: Histamine H1 receptor (Homo sapiens) (UniProt P35367); conditions: 10 uM
[21] = in vivo; conditions: Sprague-Dawley, rat, po, 10 umol/kg; remark: listed apart in the source
[22] = organism: Rattus norvegicus; assay: animal or person; conditions: Sprague-Dawley, po, read-out: INH; remark: listed apart in the source
[23] = in vitro; conditions: human, microsomes, CLH
[24] = target: Sodium-dependent noradrenaline transporter (Homo sapiens) (UniProt P23975); conditions: 10 uM
[25] = in vivo; conditions: Sprague-Dawley, rat, iv, 3 umol/kg; remark: listed apart in the source
[26] = target: Nitric oxide synthase 3 (Homo sapiens) (UniProt P29474); conditions: 10 uM
[27] = target: Mu-type opioid receptor (Homo sapiens) (UniProt P35372); conditions: 10 uM
[28] = organism: Rattus norvegicus; assay: animal or person; conditions: Sprague-Dawley, po, read-out: INH; remark: listed apart in the source
[29] = target: Acetylcholinesterase (Homo sapiens) (UniProt P22303); conditions: 10 uM
[30] = in vivo; conditions: Sprague-Dawley, rat, po, 10 umol/kg; remark: listed apart in the source
[31] = organism: Rattus norvegicus; assay: animal or person; conditions: Sprague-Dawley, po, read-out: INH; remark: listed apart in the source
[32] = organism: Rattus norvegicus; assay: animal or person; conditions: Sprague-Dawley, po, read-out: INH; remark: listed apart in the source
[33] = target: Potassium voltage-gated channel subfamily KQT member 2 (Homo sapiens) (UniProt O43526); conditions: 10 uM
[34] = target: 5-hydroxytryptamine receptor 2A (Homo sapiens) (UniProt P28223); conditions: 10 uM
[35] = target: Transient receptor potential cation channel subfamily A member 1 (Homo sapiens) (UniProt O75762); conditions: 11 uM
[36] = target: Prostaglandin G/H synthase 1 (Homo sapiens) (UniProt P23219); conditions: 10 uM
[37] = in vivo; conditions: Sprague-Dawley, rat, brain/plasma
[38] = in vivo; conditions: Sprague-Dawley, rat, po, 10 umol/kg; remark: listed apart in the source
[39] = target: Beta-1 adrenergic receptor (Homo sapiens) (UniProt P08588); conditions: 10 uM
[40] = target: Muscarinic acetylcholine receptor M2 (Homo sapiens) (UniProt P08172); conditions: 10 uM
[41] = organism: Rattus norvegicus; assay: animal or person; conditions: Sprague-Dawley, po, read-out: INH; remark: listed apart in the source
[42] = organism: Rattus norvegicus; assay: animal or person; conditions: Sprague-Dawley, po, read-out: INH; remark: listed apart in the source

Transient receptor potential cation channel subfamily A member 1 (Homo sapiens), sequence (O75762 whole entry): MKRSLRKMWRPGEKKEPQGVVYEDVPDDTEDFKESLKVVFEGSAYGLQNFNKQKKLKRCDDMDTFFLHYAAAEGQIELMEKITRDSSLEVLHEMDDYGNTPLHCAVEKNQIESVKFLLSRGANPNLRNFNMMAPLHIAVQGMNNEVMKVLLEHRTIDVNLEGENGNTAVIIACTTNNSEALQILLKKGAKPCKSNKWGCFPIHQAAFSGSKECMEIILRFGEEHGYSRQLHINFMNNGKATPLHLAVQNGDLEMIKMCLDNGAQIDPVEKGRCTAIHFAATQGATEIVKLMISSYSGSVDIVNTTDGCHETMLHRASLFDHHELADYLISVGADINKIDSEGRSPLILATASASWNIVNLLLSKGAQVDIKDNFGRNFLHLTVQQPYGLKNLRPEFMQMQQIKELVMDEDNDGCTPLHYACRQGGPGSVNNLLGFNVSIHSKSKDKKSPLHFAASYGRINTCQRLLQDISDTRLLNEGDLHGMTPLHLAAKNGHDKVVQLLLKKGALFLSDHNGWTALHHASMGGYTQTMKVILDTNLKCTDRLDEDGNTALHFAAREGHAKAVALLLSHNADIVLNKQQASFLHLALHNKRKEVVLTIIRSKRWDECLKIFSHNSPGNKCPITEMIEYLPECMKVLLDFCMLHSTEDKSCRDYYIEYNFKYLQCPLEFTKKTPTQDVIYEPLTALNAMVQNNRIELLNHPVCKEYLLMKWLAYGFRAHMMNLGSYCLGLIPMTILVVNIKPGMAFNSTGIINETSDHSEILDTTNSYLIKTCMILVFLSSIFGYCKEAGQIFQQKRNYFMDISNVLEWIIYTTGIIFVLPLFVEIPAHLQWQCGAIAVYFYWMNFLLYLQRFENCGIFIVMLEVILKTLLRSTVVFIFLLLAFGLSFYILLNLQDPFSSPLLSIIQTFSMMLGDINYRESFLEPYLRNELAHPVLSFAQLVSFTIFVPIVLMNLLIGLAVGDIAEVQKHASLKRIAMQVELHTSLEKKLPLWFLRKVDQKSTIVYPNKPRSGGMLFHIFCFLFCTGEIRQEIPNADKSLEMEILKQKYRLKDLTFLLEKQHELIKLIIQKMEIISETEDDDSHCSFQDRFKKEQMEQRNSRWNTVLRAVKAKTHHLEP
D(2) dopamine receptor (Homo sapiens), sequence (P14416 whole entry): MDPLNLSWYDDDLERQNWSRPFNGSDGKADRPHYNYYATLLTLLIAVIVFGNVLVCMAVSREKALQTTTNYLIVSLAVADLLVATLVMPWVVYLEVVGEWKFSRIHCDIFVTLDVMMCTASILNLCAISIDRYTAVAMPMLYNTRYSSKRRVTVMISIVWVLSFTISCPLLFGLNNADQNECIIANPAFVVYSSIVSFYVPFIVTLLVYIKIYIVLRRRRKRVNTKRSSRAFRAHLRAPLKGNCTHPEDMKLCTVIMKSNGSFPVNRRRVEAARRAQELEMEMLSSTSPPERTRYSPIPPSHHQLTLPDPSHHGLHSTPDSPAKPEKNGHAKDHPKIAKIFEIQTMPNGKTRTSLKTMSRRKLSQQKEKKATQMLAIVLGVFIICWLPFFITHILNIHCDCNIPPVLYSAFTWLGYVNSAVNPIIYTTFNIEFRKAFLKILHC
Insulin receptor (Homo sapiens), sequence (P06213 28-758 limits assumed): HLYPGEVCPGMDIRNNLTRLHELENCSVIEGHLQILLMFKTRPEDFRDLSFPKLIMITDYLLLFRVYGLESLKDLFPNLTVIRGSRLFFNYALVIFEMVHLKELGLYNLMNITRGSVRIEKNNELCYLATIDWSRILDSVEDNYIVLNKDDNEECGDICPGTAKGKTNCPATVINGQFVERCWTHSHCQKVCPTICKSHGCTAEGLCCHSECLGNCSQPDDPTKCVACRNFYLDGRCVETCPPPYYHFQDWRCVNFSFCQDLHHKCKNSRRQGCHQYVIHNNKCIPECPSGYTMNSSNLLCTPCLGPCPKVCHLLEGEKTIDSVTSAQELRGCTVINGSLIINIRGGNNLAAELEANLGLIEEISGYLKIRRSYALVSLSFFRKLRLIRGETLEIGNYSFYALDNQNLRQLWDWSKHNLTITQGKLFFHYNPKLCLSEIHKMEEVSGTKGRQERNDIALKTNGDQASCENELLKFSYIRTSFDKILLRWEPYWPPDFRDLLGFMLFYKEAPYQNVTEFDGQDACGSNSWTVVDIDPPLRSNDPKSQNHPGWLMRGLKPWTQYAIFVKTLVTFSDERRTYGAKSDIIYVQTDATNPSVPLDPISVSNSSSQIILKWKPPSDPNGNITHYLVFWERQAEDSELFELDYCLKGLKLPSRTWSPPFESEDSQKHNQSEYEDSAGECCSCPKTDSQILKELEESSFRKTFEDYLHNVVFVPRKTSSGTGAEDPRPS
Insulin receptor (Homo sapiens), sequence (P06213 763-1382 limits assumed): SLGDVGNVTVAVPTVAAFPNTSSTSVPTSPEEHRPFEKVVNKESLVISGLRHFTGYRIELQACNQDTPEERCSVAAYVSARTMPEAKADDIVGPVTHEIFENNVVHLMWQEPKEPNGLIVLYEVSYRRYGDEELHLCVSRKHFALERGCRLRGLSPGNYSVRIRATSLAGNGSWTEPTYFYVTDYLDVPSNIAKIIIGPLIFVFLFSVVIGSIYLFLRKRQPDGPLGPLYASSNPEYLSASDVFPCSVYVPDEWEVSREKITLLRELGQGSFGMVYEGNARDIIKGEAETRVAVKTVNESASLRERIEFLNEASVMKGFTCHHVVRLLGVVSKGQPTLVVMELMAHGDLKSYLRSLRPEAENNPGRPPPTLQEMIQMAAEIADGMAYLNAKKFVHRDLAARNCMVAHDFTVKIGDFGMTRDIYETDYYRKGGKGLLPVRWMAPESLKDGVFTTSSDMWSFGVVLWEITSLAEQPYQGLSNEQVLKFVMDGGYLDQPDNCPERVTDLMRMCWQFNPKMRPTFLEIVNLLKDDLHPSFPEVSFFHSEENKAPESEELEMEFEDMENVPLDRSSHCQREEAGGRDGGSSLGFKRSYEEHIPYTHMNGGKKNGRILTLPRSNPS
Sodium-dependent noradrenaline transporter (Homo sapiens), sequence (P23975 whole entry): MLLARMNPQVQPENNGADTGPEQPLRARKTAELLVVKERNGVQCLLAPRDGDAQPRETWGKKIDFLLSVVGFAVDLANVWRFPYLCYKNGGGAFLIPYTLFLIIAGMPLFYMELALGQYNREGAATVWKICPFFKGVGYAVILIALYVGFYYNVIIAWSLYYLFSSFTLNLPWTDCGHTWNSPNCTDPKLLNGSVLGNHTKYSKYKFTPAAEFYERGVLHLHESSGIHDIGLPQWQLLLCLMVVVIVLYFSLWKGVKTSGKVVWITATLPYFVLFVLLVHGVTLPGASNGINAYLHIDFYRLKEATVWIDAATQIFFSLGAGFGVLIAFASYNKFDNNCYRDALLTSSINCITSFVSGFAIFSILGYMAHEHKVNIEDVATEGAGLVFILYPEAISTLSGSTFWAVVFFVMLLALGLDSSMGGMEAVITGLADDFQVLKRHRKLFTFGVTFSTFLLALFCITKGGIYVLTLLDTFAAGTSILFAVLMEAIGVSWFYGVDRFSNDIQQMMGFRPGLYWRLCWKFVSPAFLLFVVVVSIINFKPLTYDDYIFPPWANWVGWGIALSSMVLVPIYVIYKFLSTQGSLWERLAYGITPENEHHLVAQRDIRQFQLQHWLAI
Alpha-2A adrenergic receptor (Homo sapiens), sequence (P08913 whole entry): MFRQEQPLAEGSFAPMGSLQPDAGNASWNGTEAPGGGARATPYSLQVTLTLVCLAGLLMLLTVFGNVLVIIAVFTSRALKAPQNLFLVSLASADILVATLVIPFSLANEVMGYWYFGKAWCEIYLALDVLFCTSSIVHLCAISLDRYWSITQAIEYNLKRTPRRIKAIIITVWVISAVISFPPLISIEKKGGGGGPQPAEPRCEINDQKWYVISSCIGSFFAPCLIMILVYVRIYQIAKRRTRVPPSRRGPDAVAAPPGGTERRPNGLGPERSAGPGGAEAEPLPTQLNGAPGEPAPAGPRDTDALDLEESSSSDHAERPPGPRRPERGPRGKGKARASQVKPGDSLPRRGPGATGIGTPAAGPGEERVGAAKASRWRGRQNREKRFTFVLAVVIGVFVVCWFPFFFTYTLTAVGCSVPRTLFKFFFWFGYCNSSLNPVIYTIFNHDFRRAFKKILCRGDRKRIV
Acetylcholinesterase (Homo sapiens), sequence (P22303 whole entry): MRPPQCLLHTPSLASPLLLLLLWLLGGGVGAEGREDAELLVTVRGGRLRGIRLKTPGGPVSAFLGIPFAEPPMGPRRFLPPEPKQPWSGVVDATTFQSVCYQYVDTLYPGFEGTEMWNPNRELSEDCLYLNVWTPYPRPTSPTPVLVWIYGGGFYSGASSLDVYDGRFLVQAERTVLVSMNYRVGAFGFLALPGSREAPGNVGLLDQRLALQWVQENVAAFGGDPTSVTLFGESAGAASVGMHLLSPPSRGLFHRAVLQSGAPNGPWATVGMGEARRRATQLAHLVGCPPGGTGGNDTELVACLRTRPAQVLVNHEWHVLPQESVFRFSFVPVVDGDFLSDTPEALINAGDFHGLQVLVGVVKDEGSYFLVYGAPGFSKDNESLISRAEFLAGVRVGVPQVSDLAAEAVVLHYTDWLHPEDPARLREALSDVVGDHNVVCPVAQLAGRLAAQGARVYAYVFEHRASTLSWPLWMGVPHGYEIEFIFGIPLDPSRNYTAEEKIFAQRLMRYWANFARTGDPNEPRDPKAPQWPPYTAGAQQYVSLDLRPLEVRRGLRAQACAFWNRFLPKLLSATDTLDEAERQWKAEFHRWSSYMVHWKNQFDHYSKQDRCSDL
Mu-type opioid receptor (Homo sapiens), sequence (P35372 whole entry): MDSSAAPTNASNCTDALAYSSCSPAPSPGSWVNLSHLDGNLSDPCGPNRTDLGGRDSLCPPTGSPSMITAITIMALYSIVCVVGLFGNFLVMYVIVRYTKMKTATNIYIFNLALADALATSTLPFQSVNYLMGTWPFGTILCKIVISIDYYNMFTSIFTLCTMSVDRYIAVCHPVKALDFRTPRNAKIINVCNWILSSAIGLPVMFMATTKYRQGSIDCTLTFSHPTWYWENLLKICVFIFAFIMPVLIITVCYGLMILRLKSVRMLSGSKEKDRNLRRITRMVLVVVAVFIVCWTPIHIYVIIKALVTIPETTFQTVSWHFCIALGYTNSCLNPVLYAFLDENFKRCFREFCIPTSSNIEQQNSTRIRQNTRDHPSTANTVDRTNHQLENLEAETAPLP

Q: Which results are given for `O=C(NCc1ccc(OC(F)(F)F)cc1)C1c2ccccc2C(=O)N1C1CCOCC1` (single isomer, unassigned; enantiomer 2)?
A: inhibition [1]: inactive; inhibition [2]: inactive; AUC [3]: 1.7 µM·h; inhibition in vivo at 100 µmol/kg [4]: 42%; clearance [5]: 30 mL/min/kg; microsomal CLint [6]: < 10 µL/min/mg; inhibition [7]: inactive; inhibition [8]: inactive; IC50 [9]: > 33 µM; Tmax [10]: 0.3 h; AUC [11]: 1.1 µM·h; inhibition [12]: inactive; inhibition [13]: inactive; inhibition [14]: inactive; inhibition [15]: inactive; Vd [16]: 0.8 L/kg; inhibition in vivo at 100 µmol/kg [17]: 65%; inhibition [18]: 79%; fraction unbound [19]: 0.132; inhibition [20]: inactive; bioavailability [21]: 20%; inhibition in vivo at 30 µmol/kg [22]: 16%; microsomal CLint [23]: 15 µL/min/mg; inhibition [24]: inactive; half-life [25]: 1 h; inhibition [26]: inactive; inhibition [27]: inactive; inhibition in vivo at 30 µmol/kg [28]: 34%; inhibition [29]: inactive; half-life [30]: 1.9 h; inhibition in vivo at 140 µmol/kg [31]: 30%; inhibition in vivo at 100 µmol/kg [32]: 54%; inhibition [33]: inactive; inhibition [34]: inactive; inhibition [35]: inactive; inhibition [36]: inactive; Kp [37]: 1; Cmax [38]: 600 nM; inhibition [39]: inactive; inhibition [40]: inactive

Q: Which inhibition [1] does the source give for `O=C(NCc1ccc(OC(F)(F)F)cc1)C1c2ccccc2C(=O)N1CCc1ccccn1` (stereo in doubt; 16A) here?
A: 44%

Q: And the AUC [3]?
A: 1.7 µM·h

Q: What about the inhibition in vivo at 100 µmol/kg [4] of the same compound?
A: 42%

Q: And the inhibition [7]?
A: inactive

Q: What about the inhibition [8] of the same compound?
A: inactive

Q: What about the inhibition in vivo at 140 µmol/kg [41] of the same compound?
A: 53%

Q: And the IC50 [9]?
A: 10 µM

Q: What about the Tmax [10] of the same compound?
A: 0.5 h

Q: What about the AUC [11] of the same compound?
A: 2.1 µM·h

Q: What about the inhibition [12] of the same compound?
A: inactive

Q: What about the inhibition [13] of the same compound?
A: inactive

Q: What about the inhibition in vivo at 30 µmol/kg [42] of the same compound?
A: 35%

Q: And the inhibition [14]?
A: inactive

Q: What about the inhibition [15] of the same compound?
A: inactive

Q: What about the inhibition in vivo at 100 µmol/kg [17] of the same compound?
A: 44%

Q: What about the inhibition [18] of the same compound?
A: 100%

Q: What about the fraction unbound [19] of the same compound?
A: 0.045

Q: What about the inhibition [20] of the same compound?
A: inactive

Q: What about the bioavailability [21] of the same compound?
A: 37%

Q: What about the inhibition in vivo at 30 µmol/kg [22] of the same compound?
A: 26%

Q: What about the inhibition [24] of the same compound?
A: inactive

Q: And the inhibition [26]?
A: inactive

Q: What about the inhibition [27] of the same compound?
A: inactive

Q: And the inhibition in vivo at 30 µmol/kg [28]?
A: 25%

Q: What about the inhibition [29] of the same compound?
A: inactive

Q: What about the half-life [30] of the same compound?
A: 5.9 h

Q: What about the inhibition in vivo at 140 µmol/kg [31] of the same compound?
A: 84%

Q: What about the inhibition in vivo at 100 µmol/kg [32] of the same compound?
A: 56%

Q: And the inhibition [34]?
A: inactive

Q: What about the inhibition [35] of the same compound?
A: inactive

Q: What about the inhibition [36] of the same compound?
A: inactive

Q: What about the Kp [37] of the same compound?
A: 2

Q: And the Cmax [38]?
A: 600 nM

Q: And the inhibition [39]?
A: inactive

Q: What about the inhibition [40] of the same compound?
A: inactive
